From patent US20250361230A1, “LATS Inhibitors and Uses Thereof” (The USA, as Represented by the Secretary, Dept. of Heath …, priority 2022, published 2025)
Where two headings read alike, the source gives them in different places.

What was measured:
Format in all cases: biochemical
[1] = target: AKT (Homo sapiens, UniProt P31749); assay: RBC HotSpot kinase assay (33P-ATP, P81 filter-binding), AKT; settings: read-out: AKT IC50
Summary of the method: (§1)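 Hepes pH 7.5/MgCl2/EGTA/Brij35/BSA/Na3VO4/DTT buffer, cofactors per kinase; cpd acoustically dispensed, 20 min preinc RT; start w/ 33P-ATP, 2 h RT; P81 filter readout; 10-pt singlet IC50.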

[2] = target: T1, LATS2 (Homo sapiens, UniProt Q9NRM7); assay: RBC HotSpot kinase assay (33P-ATP, P81 filter-binding), LATS2; settings: read-out: LATS2 IC50
T1 sequence (Q9NRM7 1-1088): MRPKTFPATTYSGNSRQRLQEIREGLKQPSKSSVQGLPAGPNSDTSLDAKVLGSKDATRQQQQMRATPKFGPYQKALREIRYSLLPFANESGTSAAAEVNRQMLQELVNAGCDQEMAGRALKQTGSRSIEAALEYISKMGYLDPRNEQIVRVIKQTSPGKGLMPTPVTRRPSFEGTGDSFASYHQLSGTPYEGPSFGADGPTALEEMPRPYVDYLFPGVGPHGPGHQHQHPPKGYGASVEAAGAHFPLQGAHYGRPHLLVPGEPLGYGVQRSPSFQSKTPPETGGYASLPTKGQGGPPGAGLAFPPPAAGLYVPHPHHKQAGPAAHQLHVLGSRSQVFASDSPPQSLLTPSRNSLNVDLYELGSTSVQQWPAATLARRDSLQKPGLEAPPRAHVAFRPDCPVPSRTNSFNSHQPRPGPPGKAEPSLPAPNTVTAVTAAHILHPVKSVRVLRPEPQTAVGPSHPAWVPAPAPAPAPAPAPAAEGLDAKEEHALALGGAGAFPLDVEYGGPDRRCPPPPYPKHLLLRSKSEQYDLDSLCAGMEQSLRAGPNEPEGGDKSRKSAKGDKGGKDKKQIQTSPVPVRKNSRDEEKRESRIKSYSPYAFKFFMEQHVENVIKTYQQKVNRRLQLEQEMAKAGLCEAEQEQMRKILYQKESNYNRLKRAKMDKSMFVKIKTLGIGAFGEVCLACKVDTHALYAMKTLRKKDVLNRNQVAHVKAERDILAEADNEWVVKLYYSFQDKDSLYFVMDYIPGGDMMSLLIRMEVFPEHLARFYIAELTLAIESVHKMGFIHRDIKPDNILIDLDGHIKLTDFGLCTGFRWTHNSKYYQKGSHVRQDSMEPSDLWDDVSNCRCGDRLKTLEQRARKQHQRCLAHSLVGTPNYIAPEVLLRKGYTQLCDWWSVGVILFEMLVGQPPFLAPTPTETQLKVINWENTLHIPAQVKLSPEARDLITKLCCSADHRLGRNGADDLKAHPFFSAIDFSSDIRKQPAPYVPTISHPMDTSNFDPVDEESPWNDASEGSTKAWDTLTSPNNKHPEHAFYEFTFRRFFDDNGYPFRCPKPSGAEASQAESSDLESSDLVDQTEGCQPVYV
Summary of the method: as §1

[3] = target: T2, LATS1 (Homo sapiens, UniProt O95835); assay: RBC HotSpot kinase assay (33P-ATP, P81 filter-binding), LATS1; settings: read-out: LATS1 IC50
T2 sequence (O95835 1-1130): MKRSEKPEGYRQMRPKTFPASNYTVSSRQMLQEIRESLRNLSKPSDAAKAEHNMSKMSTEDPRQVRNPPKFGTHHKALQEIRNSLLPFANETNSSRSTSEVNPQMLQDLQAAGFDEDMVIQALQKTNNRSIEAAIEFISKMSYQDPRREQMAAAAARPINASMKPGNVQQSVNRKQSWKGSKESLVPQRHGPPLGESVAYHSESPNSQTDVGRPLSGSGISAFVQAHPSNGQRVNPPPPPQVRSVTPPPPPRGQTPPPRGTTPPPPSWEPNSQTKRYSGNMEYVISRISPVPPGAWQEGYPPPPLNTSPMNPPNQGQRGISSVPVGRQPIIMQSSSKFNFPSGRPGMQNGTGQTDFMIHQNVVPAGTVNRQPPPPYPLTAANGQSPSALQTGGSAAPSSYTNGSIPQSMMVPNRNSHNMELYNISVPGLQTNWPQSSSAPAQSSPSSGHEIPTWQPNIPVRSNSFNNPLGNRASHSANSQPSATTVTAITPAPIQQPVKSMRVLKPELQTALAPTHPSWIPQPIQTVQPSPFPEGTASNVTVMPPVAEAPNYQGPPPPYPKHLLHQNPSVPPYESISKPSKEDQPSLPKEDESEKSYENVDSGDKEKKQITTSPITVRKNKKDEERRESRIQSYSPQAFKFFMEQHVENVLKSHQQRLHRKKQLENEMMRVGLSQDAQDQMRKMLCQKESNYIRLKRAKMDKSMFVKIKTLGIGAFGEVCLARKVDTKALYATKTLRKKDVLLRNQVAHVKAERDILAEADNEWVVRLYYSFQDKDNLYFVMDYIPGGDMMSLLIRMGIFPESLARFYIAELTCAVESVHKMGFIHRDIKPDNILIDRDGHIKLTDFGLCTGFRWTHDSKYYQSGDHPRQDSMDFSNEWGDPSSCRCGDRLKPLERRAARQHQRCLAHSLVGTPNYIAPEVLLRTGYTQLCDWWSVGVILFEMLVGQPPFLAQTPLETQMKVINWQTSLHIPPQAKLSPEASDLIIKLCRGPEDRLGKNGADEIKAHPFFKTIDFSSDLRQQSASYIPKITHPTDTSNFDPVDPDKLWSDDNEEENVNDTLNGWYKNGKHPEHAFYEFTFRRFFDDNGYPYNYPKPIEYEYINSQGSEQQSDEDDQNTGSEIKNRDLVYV
Summary of the method: as §1

[4] = Table 28, biochemical kinase assay
[5] = Table 32, biochemical kinase assay

Sequence of AKT (P31749 whole entry): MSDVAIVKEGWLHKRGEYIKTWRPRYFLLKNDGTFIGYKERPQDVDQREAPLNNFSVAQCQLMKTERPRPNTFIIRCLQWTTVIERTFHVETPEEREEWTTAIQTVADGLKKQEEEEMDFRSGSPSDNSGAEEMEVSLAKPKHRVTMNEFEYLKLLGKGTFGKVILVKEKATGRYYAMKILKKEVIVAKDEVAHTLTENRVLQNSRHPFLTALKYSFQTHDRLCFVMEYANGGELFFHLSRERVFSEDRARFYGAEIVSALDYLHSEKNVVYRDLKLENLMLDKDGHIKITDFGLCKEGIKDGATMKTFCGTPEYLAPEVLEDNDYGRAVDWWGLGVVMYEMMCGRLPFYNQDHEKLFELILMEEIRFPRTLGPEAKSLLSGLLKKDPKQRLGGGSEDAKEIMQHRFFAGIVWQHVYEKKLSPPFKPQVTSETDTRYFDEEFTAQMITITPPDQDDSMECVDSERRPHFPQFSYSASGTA

SMILES | IC50 [1, 4] [nM] | IC50 [2, 4] [nM] | IC50 [3, 4] [nM] | IC50 [1, 5] [nM] | IC50 [2, 5] [nM] | IC50 [3, 5] [nM]
O[C@]1(c2ccc(-c3ccnc4[nH]cc(F)c34)cc2Cl)[C@@H]2CC[C@H]1CNC2 [Compound 103, (1R,5S,8s)-8-(2-chloro-4-(3-fluoro-1H-pyrrolo[2,3-b]pyridin-4-yl)phenyl)-3-azabicyclo[3.2.1]octan-8-ol] | 1720 | 162 | 43.9 |  |  | 
NCc1ccc(-c2c(F)cnc3[nH]ccc23)cc1 [Compound 273, (4-(5-fluoro-1H-pyrrolo[2,3-b]pyridin-4-yl)phenyl) methanamine] | 1390 | 148 | 90 |  |  | 
Clc1cc(-c2ccnc3[nH]ccc23)ccc1C1CCNCC1 [Compound 161, 4-(3-chloro-4-(piperidin-4-yl)phenyl)-1H-pyrrolo[2,3-b]pyridine] | 753 | 21 | 8.9 |  |  | 
CN(C)C(C)(C)c1ccc(-c2ccnc3[nH]ccc23)cc1 [Compound 209, 2-(4-(1H-pyrrolo[2,3-b]pyridin-4-yl)phenyl)-N,N-dimethylpropan-2-amine] | 1250 | 146 | 43 |  |  | 
COC(=O)c1c[nH]c2nccc(-c3ccc(C4(O)CCNCC4)cc3)c12 [Compound 112, methyl 4-(4-(4-hydroxypiperidin-4-yl)phenyl)-1H-pyrrolo[2,3-b]pyridine-3-carboxylate] | 2330 | 18 | 9.2 |  |  | 
CN1C[C@H]2CC[C@@H](C1)C2(O)c1ccc(-c2ccnc3[nH]cc(F)c23)cc1Cl (stereo partly drawn) [Compound 136, (1R,5S,8s)-8-(2-chloro-4-(3-fluoro-1H-pyrrolo[2,3-b]pyridin-4-yl)phenyl)-3-methyl-3-azabicyclo[3.2.1]octan-8-ol] | 1060 | 118 | 69.8 |  |  | 
COC(=O)c1c[nH]c2nccc(-c3ccc([C@@]4(O)[C@H](C)CN(C(=O)CN)C[C@@H]4C)c(C)c3)c12 [Compound 311, methyl 4-(4-((3S,4s,5R)-1-glycyl-4-hydroxy-3,5-dimethylpiperidin-4-yl)-3-methylphenyl)-1H-pyrrolo[2,3-b]pyridine-3-carboxylate] | 1040 | 3.6 | 6.9 |  |  | 
C[C@@H]1CN(C)C[C@H](C)[C@@]1(O)c1ccc(-c2ccnc3[nH]cc(F)c23)cc1F [Compound 42, (3R,4s,5S)-4-(2-fluoro-4-(3-fluoro-1H-pyrrolo[2,3-b]pyridin-4-yl)phenyl)-1,3,5-trimethylpiperidin-4-ol] | 159 | 6.7 | 9.7 |  |  | 
Fc1ccccc1CNCc1ccc(-c2ccnc3[nH]ccc23)cc1 [Compound 204, N-(4-(1H-pyrrolo[2,3-b]pyridin-4-yl)benzyl)-1-(2-fluorophenyl)methanamine] | 1430 | 33.1 | 15.9 |  |  | 
c1cc(-c2ccc(C3CC4CCCC(C3)N4)cc2)c2cc[nH]c2n1 (stereo not drawn) [Compound 146, 4-(4-(9-azabicyclo[3.3.1]nonan-3-yl)phenyl)-1H-pyrrolo[2,3-b]pyridine] | 2460 | 94.8 | 203 |  |  | 
CN(CC(O)(c1ccc(Cl)cc1)c1ccc(-c2ccnc3[nH]ccc23)cc1)C(=O)CN (stereo not drawn) [Compound 1030, N-(2-(4-(1H-pyrrolo[2,3-b]pyridin-4-yl)phenyl)-2-(4-chlorophenyl)-2-hydroxyethyl)-2-amino-N-methylacetamide] |  |  |  | 1.1 | 5.1 | 4.4
C[C@@H]1CN(C(CF)CF)C[C@H](C)C1(O)c1ccc(-c2ccnc3[nH]cc(F)c23)cc1Cl (stereo partly drawn) [Compound 53, (3S,5R)-4-(2-chloro-4-(3-fluoro-1H-pyrrolo[2,3-b]pyridin-4-yl)phenyl)-1-(1,3-difluoropropan-2-yl)-3,5-dimethylpiperidin-4-ol] | 374 | 3.6 | 3 |  |  | 
NCc1ccc(-c2cc(Cl)nc3[nH]ccc23)cc1 [Compound 262, (4-(6-chloro-1H-pyrrolo[2,3-b]pyridin-4-yl)phenyl) methanamine] | > 10000 | 4420 | > 10000 |  |  | 
OC1(c2ccc(-c3ccnc4[nH]cc(Br)c34)cc2Cl)C2CNCC1C2 (stereo not drawn) [Compound 121, 6-(4-(3-bromo-1H-pyrrolo[2,3-b]pyridin-4-yl)-2-chlorophenyl)-3-azabicyclo[3.1.1]heptan-6-ol] | 307 | 14.6 | 10.2 |  |  | 
Cc1cc(-c2ccnc3[nH]cc(F)c23)ccc1[C@@]1(O)[C@H](C)CN(C)C[C@@H]1C [Compound 43, (3R,4s,5S)-4-(4-(3-fluoro-1H-pyrrolo[2,3-b]pyridin-4-yl)-2-methylphenyl)-1,3,5-trimethylpiperidin-4-ol] | 63.5 | 2.9 | 3.2 |  |  | 
NCc1ccc(-c2cc(N)nc3[nH]ccc23)cc1 [Compound 225, 4-(4-(aminomethyl)phenyl)-1H-pyrrolo[2,3-b]pyridin-6-amine] | > 10000 | 6420 | ≥ 10000 |  |  | 
C[C@@H]1CN(C(=O)C2(N)CC2)C[C@H](C)C1(O)c1c(F)cc(-c2ccnc3[nH]cc(F)c23)cc1F (stereo partly drawn) [Compound 78, (1-aminocyclopropyl) ((3S,5R)-4-(2,6-difluoro-4-(3-fluoro-1H-pyrrolo[2,3-b]pyridin-4-yl)phenyl)-4-hydroxy-3,5-dimethylpiperidin-1-yl)methanone] | 2430 | 34 | 16.9 |  |  | 
O=C1NCc2cc(-c3ccnc4[nH]ccc34)ccc21 [Compound 258, 5-(1H-pyrrolo[2,3-b]pyridin-4-yl)isoindolin-1-one] | > 10000 | 65 | 231 |  |  | 
CC1CNCCC1c1ccc(-c2ccnc3[nH]ccc23)cc1 (stereo not drawn) [Compound 185, 4-(4-(3-methylpiperidin-4-yl)phenyl)-1H-pyrrolo[2,3-b]pyridine] | 2110 | 57 | 70 |  |  | 
NCc1ccc(-c2ccnc3[nH]ccc23)cc1-c1ccccc1 [Compound 246, (5-(1H-pyrrolo[2,3-b]pyridin-4-yl)-[1,1′-biphenyl]-2-yl)methanamine] | 378 | 20 | 15 |  |  | 
Cc1ccccc1-c1c[nH]c2nccc(-c3ccc(CN)cc3)c12 [Compound 229, (4-(3-(o-tolyl)-1H-pyrrolo[2,3-b]pyridin-4-yl)phenyl) methanamine] | 6340 | 235 | 235 |  |  | 
